Earlier results, collected in paper PMC10026531 (Clinical Pharmacology in Drug Development, 2022).

Conditions: in vivo, po

- share of the parent drug exposure in plasma: 40%
SMILES: O=c1ccc2ccc(OCCCCN3CCN(c4cccc(Cl)c4Cl)CC3)cc2[nH]1 [dehydro‐aripiprazole]
